Test: xn = mol fraction of the nth substance listed
Conditions: 100.9 kPa, x2 = 0

O + CC(=O)[O-].CC[NH2+]CC
Conditions | speed of sound [m/s] | viscosity [mPa·s]
283.15 K | – | 1.306
288.15 K | – | 1.138
290.65 K | – | 1.066
293.15 K | – | 1.002
295.65 K | – | 0.943
298.15 K | – | 0.89
303.15 K | – | 0.797
305.65 K | – | 0.757
308.15 K | – | 0.719
310.65 K | – | 0.685
313.15 K | 1529.2 | 0.653
315.65 K | – | 0.624
318.15 K | 1536.8 | 0.596
323.15 K | – | 0.547
325.65 K | – | 0.525
328.15 K | – | 0.504
330.65 K | – | 0.485
333.15 K | – | 0.466
338.15 K | – | 0.433
340.65 K | – | 0.418

Source: a compilation of properties of binary mixtures (doi:10.1016/j.jct.2020.106093)
